# Measured values as given in patent US20230028658A1, “EXPANDED DOSAGE REGIMENS FOR INTEGRIN INHIBITORS” (Pliant Therapeutics, Inc., priority 2021, published 2023).
# Assays:
# lung Col1a1 expression [1] = experiment: Precision cut lung slices, chronic bleomycin, comparison with nintedanib and pirfenidone (Example B10); format: cell-based, Mice (C57BL/6); conditions: chronic bleomycin PCLS, 7 days culture, vs DMSO vehicle; FIG. 6A
# Protocol: (§1) Mice (C57BL/6) were administered 3 U/kg of bleomycin (Teva Pharmaceuticals; North Wales, Pa.) on Day 0 and 1 U/kg of bleomycin on days 14, 28, 42 and 56 via oropharyngeal aspiration while under anesthesia. At day 70, 14 days following the final bleomycin insult, precision cut lung slices were obtained. Following euthanization, 2% low gelling temp agarose was injected into the mouse lungs via the trachea. […] The lobes were then subjected to precision slicing to obtain samples for culture using a microtome (Compresstome VF-300-0Z, Precisionary; Greenville, N.C.). Individual slices were distributed in a multiwell culture plate and cultured for 7 days under control (DMSO) and test compound conditions. The viability of the slices over the course of culturing was confirmed by WST-1 assay of mitochondrial activity.
# During the culture period, slices in the control group were treated with DMSO and slices in the test group were treated with a DMSO solution of one of: compound 5; nintedanib; pirfenidone; a combination of nintedanib and compound 5; a combination of pirfenidone and compound 5; or the small molecule ALK5 inhibitor. Compound 5 was […] effective to equal or exceed its respective IC50 values at αvβ6 and αvβ1. […] Nintendanib and pirfenidone were analyzed at concentrations 10× their reported therapeutic concentrations.
# lung Col1a1 expression [2] = experiment: Precision cut lung slices from human IPF explants, 3 days, Col1a1 expression; format: cell-based; conditions: human IPF PCLS, 3G9 ≥400 ng/mL, compound 5 179 nM, ALK5 inhibitor 1 μM, FIG. 6C
# Source text: Explanted lung tissue was obtained from human IPF subjects and inflated with agarose as described in the preceding examples. Biopsy cores were obtained from the agarose-inflated lung tissue. The biopsy cores were subjected to precision slicing to obtain several hundred μm thick. Individual slices were distributed in a multiwell culture plate and cultured for […] under control (DMSO) and test compound conditions. The viability of the slices over the course of culturing was confirmed by WST-1 assay of mitochondrial activity.
# [3] = system: Type I Collagen gene Col1a1 expression; experiment: Precision cut lung slices of mice under acute bleomycin exposure, Col1a1 expression; format: cell-based, Mice (C57BL/6); conditions: acute bleomycin PCLS, 3 days culture, normalized to DMSO; FIG. 5A
# Protocol: Mice (C57BL/6) were administered 3 U/kg of bleomycin (Teva Pharmaceuticals; North Wales, Pa.) on day 0 via oropharyngeal aspiration while under anesthesia. On day 14, precision cut lung slices were obtained. Following euthanization, 2% low gelling temp agarose was injected into the mouse lungs via the trachea. […] The lobes were then subjected to precision slicing to obtain samples for culture using a microtome (Compresstome VF-300-0Z, Precisionary; Greenville, N.C.). Individual slices were distributed in a multiwell culture plate and cultured for 3 days under control (DMSO) and test compound conditions.
# lung Col1a1 expression [4] = experiment: Precision cut lung slices of mice under chronic bleomycin exposure, Col1a1 expression (Example B9); format: cell-based, Mice (C57BL/6); conditions: chronic bleomycin PCLS, 7 days culture, normalized to DMSO; FIG. 5B
# Protocol: as §1, with “after” for “following”
# During the culture period, slices in the control group were treated with DMSO and slices in the test group were treated with a DMSO solution of one of: the selective antibody αvβ6 inhibitor 3G9; the αvβ1-selective small molecule inhibitor; a combination of the selective antibody αvβ6 inhibitor 3G9 and the αvβ1-selective small molecule inhibitor; compound 5; and the small molecule ALK5 inhibitor. The selective αvβ1 and αvβ6 integrin inhibitors were analyzed at ≥their respective IC90 concentrations for inhibition of TGF-beta activation. […]
# [5] = system: Type I Collagen gene Col1a1; experiment: Col1a1 expression in lung slices versus DMSO control slices (FIG. 5A, 5B, 6A, 6C); format: cell-based; conditions: FIG. 6A; compared to the DMSO vehicle control slices
# COL1A1 expression = experiment: PCLS from IPF lung tissue, seven days, COL1A1 expression; format: cell-based, human; conditions: PCLS from 5-7 IPF lung tissue samples, Compound 5 200 nM, nintedanib 75 nM, pirfenidone 50 μm, FIG. 6D
# Protocol: PCLS from 5-7 idopathic pulmonary fibrosis (IPF) lung tissue samples were cultured for seven days with one of: DMSO; Compound 5 at 200 nM; nintedanib at 75 nM; pirfenidone at 50 μm; a combination of Compound 5 at 200 nM and nintedanib at 75 nM; a combination of Compound 5 at 200 nM and pirfenidone at 50 μm; or an Alk5 inhibitor at 1 μm. […] FIG. 6D is a bar graph showing relative expression of COL1A1 in precision cut lung slices (PCLS) from idopathic pulmonary fibrosis (IPF) lung tissue upon exposure to Compound 5, clinical standard of care compounds nintedanib (Nin) and pirfenidone (Pirf), and an ALK5 inhibitor, all versus DMSO control.
# PCLS from a single IPF lung tissue sample were cultured for seven days with Compound 5 at concentrations of 200 pM, 2 nM, 60 nM, 200 nM, and 1 μM, along with 0.1% DMSO control and an Alk5 inhibitor at 1 μM. […] COL1A1 expression is also graphed for the PCLS in the presence of 0.1% DMSO control, and an Alk5 inhibitor at 1 μM.
# [6] = molecular target: recombinant human integrin αvβ6 (Homo sapiens, UniProt P06756+P18564); experiment: Solid phase integrin αvβ6 binding assay; conditions: read-out: αvβ6 Inhibition IC50 (nM) - range
# Protocol: Microplates were coated with recombinant human integrin αvβ6 (2 μg/mL) in PBS (100 μL/well 25° C., overnight). The coating solution was removed, washed with wash buffer (0.05% Tween 20; 0.5 mM MnCl2; in 1×TBS). The plate was blocked with 200 μL/well of Block Buffer (1% BSA; 5% sucrose; 0.5 mM MnCl2; in 1×TBS) at 37° C. for 2 h. Dilutions of testing compounds and recombinant TGFβ1 LAP (0.67 μg/mL) in binding buffer (0.05% BSA; 2.5% sucrose; 0.5 mM MnCl2; in 1×TBS) were added. The plate was incubated for 2 hours at 25° C., washed, and incubated for 1 hour with Biotin-Anti-hLAP. Bound antibody was detected by peroxidase-conjugated streptavidin. The IC50 values for testing compounds were calculated by a four-parameter logistic regression.
# The compounds tested were compound samples prepared according to procedures described in the Synthetic Examples section, with the stereochemical purity as indicated in the Examples.
# recombinant human integrin αvβ6, sequence (P06756 31-992 limits assumed): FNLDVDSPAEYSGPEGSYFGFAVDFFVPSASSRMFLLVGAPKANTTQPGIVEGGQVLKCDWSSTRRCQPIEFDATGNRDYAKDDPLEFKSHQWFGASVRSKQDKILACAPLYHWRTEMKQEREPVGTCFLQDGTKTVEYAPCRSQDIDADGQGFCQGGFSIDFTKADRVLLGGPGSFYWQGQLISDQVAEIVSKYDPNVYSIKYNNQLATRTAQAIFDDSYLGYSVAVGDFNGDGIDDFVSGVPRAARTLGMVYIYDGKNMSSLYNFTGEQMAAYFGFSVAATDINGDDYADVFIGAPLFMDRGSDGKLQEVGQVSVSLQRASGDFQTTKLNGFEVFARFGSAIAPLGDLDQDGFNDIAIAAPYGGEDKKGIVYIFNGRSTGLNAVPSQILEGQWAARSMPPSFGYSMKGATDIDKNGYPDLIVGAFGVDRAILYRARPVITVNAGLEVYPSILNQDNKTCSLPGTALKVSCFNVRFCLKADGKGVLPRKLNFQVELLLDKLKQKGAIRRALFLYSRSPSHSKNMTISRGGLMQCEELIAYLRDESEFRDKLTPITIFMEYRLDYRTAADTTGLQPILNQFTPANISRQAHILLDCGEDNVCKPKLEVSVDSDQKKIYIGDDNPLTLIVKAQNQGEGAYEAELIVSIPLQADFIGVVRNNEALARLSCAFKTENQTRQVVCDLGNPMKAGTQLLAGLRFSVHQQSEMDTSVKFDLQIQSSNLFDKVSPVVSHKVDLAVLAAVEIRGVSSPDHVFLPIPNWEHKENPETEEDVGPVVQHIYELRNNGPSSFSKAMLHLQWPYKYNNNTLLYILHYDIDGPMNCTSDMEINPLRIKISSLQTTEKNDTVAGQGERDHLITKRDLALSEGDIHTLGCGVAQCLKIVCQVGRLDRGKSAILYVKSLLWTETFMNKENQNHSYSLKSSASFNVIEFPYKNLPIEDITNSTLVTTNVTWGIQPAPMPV
# recombinant human integrin αvβ6, sequence (P18564 22-707 limits assumed): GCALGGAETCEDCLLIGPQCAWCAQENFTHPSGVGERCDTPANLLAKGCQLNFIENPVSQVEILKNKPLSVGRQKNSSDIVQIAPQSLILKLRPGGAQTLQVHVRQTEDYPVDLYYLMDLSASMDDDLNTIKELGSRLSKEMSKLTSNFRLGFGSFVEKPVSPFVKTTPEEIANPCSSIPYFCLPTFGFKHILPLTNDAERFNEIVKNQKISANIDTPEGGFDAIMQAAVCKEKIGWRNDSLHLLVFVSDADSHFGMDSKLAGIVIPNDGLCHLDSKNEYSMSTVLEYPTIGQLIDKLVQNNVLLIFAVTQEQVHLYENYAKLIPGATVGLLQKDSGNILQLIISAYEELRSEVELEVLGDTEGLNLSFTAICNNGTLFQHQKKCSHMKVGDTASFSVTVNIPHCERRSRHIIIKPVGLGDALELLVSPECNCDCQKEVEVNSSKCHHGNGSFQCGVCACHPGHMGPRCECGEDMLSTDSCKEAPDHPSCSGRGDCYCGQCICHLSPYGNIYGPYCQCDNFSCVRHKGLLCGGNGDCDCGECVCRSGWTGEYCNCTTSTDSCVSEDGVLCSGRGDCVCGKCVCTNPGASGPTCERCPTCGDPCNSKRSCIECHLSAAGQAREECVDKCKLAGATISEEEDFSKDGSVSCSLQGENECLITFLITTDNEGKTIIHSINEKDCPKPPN
smiles,measurement,setting,value
"Cc1cccc(-c2n[nH]cc2-c2ccc(F)c(-c3cnn(CCO)c3)c2)n1 [small molecule ALK5 inhibitor, 4-[2-Fluoro-5-[3-(6-methyl-2-pyridinyl)-1H-pyrazol-4-yl]phenyl]-1H-pyrazole-1-ethanol, reference compound]",lung slice Col1a1 expression,lung Col1a1 expression [1],"substantial, statistically significant (p<0.0001 vs vehicle) decrease"
same,lung Col1a1 expression,lung Col1a1 expression [2],"substantial, statistically significant"
same,Type I Collagen gene Col1a1 expression,[3],greatest decrease
same,lung Col1a1 expression,lung Col1a1 expression [4],greatest decrease
COC(=O)c1ccc2c(c1)NC(=O)/C2=C(\Nc1ccc(N(C)C(=O)CN2CCN(C)CC2)cc1)c1ccccc1 [nintedanib],lung slice Col1a1 expression,lung Col1a1 expression [1],slight increase
same,lung Col1a1 expression,[5],slight increase
same,reduced COL1A1 expression,COL1A1 expression,did not significantly reduce
"CC(C)(C)c1cc(Br)cc(C(CC(=O)O)NC(=O)CNC(=O)c2cc(O)cc(NC3=NCC(O)CN3)c2)c1 [second pan-αv small molecule inhibitor, (3S)-N-[3-hydroxy-5-[(1,4,5,6-tetrahydro-5-hydroxy-2-pyrimidinyl)amino]benzoyl]glycyl-3-[3-bromo-5-(1,1-dimethylethyl)phenyl]-3-alanine]",Type I Collagen gene Col1a1 expression,[3],reduced Type I Collagen gene Col1a1 expression
"O=C(O)[C@H](CCN(CCCCc1ccc2c(n1)NCCC2)CC(F)F)Nc1ncncc1-c1ccccc1 [Compound 119, (S)-4-((2,2-difluoroethyl) (4-(5,6,7,8-tetrahydro-1,8-naphthyridin-2-yl)butyl)amino)-2-((5-phenylpyrimidin-4-yl)amino) butanoic acid]",IC50,[6],> 1000 nM
"COC[C@@H](F)CN(CCCCc1ccc2c(n1)NCCC2)CC[C@H](Nc1cc(-c2ccccc2)ncn1)C(=O)O [Compound 128, (S)-4-(((S)-2-fluoro-3-methoxypropyl) (4-(5,6,7,8-tetrahydro-1,8-naphthyridin-2-yl)butyl)amino)-2-((6-phenylpyrimidin-4-yl)amino) butanoic acid]",IC50,[6],> 1000 nM
"O=C(O)[C@H](CCN(CCCCc1ccc2c(n1)NCCC2)C1CC1)Nc1ccncn1 [Compound 2, (S)-4-(cyclopropyl(4-(5,6,7,8-tetrahydro-1,8-naphthyridin-2-yl)butyl)amino)-2-(pyrimidin-4-ylamino) butanoic acid]",IC50,[6],250 to 1000 nM
"CS(=O)(=O)CCN(CCCCc1ccc2c(n1)NCCC2)CC[C@H](Nc1ncnc2ccccc12)C(=O)O [Compound 27, (S)-4-((2-(methylsulfonyl)ethyl) (4-(5,6,7,8-tetrahydro-1,8-naphthyridin-2-yl)butyl)amino)-2-(quinazolin-4-ylamino) butanoic acid]",IC50,[6],< 50 nM
"COCCN(CCCCc1ccc2c(n1)NCCC2)CC[C@H](Nc1nccc2ccccc12)C(=O)O [Compound 34, (S)-2-(isoquinolin-1-ylamino)-4-((2-methoxyethyl) (4-(5,6,7,8-tetrahydro-1,8-naphthyridin-2-yl)butyl)amino) butanoic acid]",IC50,[6],> 1000 nM
"COCCN(CCCCc1ccc2c(n1)NCCC2)CC[C@H](Nc1cc(-n2cccn2)ncn1)C(=O)O [Compound 44, (S)-2-((6-(1H-pyrazol-1-yl)pyrimidin-4-yl)amino)-4-((2-methoxyethyl) (4-(5,6,7,8-tetrahydro-1,8-naphthyridin-2-yl)butyl)amino) butanoic acid]",IC50,[6],< 50 nM
"CO[C@@H](C)CN(CCCCc1ccc2c(n1)NCCC2)CC[C@H](Nc1ncnc2ccccc12)C(=O)O [Compound 25, (S)-4-(((S)-2-methoxypropyl) (4-(5,6,7,8-tetrahydro-1,8-naphthyridin-2-yl)butyl)amino)-2-(quinazolin-4-ylamino) butanoic acid]",IC50,[6],< 50 nM
Cc1ccc(=O)n(-c2ccccc2)c1 [pirfenidone],lung slice Col1a1 expression,lung Col1a1 expression [1],slight increase
same,lung Col1a1 expression,[5],slight increase
same,reduced COL1A1 expression,COL1A1 expression,did not significantly reduce
